From ChEMBL document CHEMBL1201862, “PubChem BioAssay data set” (2004) come the findings set out here.

SMILES strings stand for the structures.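 A five-concentration, 48-hour dose response in 96-well plates underlies each endpoint, interpolated linearly between surrounding concentrations. Here, GI50 denotes the concentration required for 50% inhibition of growth.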 Activity calls are given as the source filed them. Cut-off read from the data, not from the text of the source: active = GI50 up to about 1.1 µM and inactive = higher. A value given as a limit tells only on which side of the number the result lay.

Among the test systems are DMS-114; M19-MEL; KM-20L2; SNB-78; LXFL 529; DMS-273; HOP-18; DLD-1; RXF 631.
What all share (experiment): NCI tumour cell line growth inhibition, 48 h

For the compound `Cc1cc(NCCCCCCCCNc2cc(C)nc3cc(N(C)C)ccc23)c2ccc(N(C)C)cc2n1`, the GI50 is 1.39 µM (inactive) with DMS-114; 2.78 µM (inactive) in the assay on M19-MEL; 4.29 µM (inactive) in the assay with KM-20L2; 5.47 µM (inactive) with SNB-78; 1.69 µM (inactive) in the assay with LXFL 529; 2.74 µM (inactive) in the assay with DMS-273.

Turning to `NNC(=O)C(=O)N/N=C1\CCC(=O)CC1C(=O)CCC(=O)Nc1ccc(Cl)cc1` (configuration not stated), the GI50 in the assay with M19-MEL was > 100 µM (inactive); with HOP-18 it was 95.5 µM (inactive); in the assay with KM-20L2 it was > 100 µM (inactive); with SNB-78, > 100 µM (inactive); in the assay with LXFL 529, > 100 µM (inactive); in the assay with DMS-273 it was > 100 µM (inactive). In the assay on DLD-1, the GI50 is > 100 µM (inactive).

In the case of `S=C(Nc1ccccc1)Nc1[nH]c(=S)sc1-c1nc2ccccc2[nH]1`, the GI50 in the assay on M19-MEL was > 100 µM (inactive); in the assay with HOP-18 it was > 100 µM (inactive); in the assay on RXF 631, 65.6 µM (inactive); in the assay on SNB-78, 36.1 µM (inactive); in the assay with LXFL 529, 29.6 µM (inactive); with DMS-273 it was 37.8 µM (inactive). Besides, in the assay on DLD-1, the GI50 was 76.9 µM (inactive).

Take `O=C(c1ccncc1)n1nc(-c2ccccc2)c(/N=N/c2ccccc2[N+](=O)[O-])c1-c1ccccc1`: the GI50 is 21 µM (inactive) in the assay on DMS-114; > 100 µM (inactive) in the assay with M19-MEL; 38.5 µM (inactive) in the assay with RXF 631; 65.3 µM (inactive) in the assay on SNB-78; 74.6 µM (inactive) with LXFL 529; > 100 µM (inactive) in the assay on DMS-273. In addition, the GI50 in the assay on DLD-1 is 49.9 µM (inactive).

On to `NC(=S)N1N=C2c3ccccc3CCC[C@H]2[C@@H]1c1ccccc1`, for which the GI50 is 3.98 µM (inactive) in the assay on DMS-114; 2.81 µM (inactive) in the assay with M19-MEL; 2.01 µM (inactive) in the assay on KM-20L2; 5.77 µM (inactive) in the assay on SNB-78; 3.89 µM (inactive) in the assay with LXFL 529; 0.721 µM (active) in the assay on DMS-273. Moreover, the GI50 in the assay with DLD-1 is 3.42 µM (inactive).

On to `COc1cc(C(O)C(=O)c2cnc3cc([N+](=O)[O-])ccc3n2)ccc1O` (configuration not stated), for which the GI50 in the assay on DMS-114 is 49.9 µM (inactive); with M19-MEL, > 100 µM (inactive); in the assay with RXF 631, > 100 µM (inactive); in the assay with KM-20L2 it was 85.5 µM (inactive); in the assay on LXFL 529 it was 74.1 µM (inactive); in the assay on DMS-273, > 100 µM (inactive). In addition, the GI50 in the assay on DLD-1 was > 100 µM (inactive).

Regarding `O=C(Cc1nc2c3c(ccc2nc1O)C(=O)c1ccccc1C3=O)C(=O)Nc1ccccc1[N+](=O)[O-]`, the GI50 is 22.2 µM (inactive) in the assay on M19-MEL, 19.6 µM (inactive) in the assay with KM-20L2, 4.22 µM (inactive) in the assay on SNB-78 and 4.24 µM (inactive) in the assay on LXFL 529.

Regarding `Cc1ccc(NC(=O)C(=O)CC(=O)C2CCOC2=O)c(C)c1` (configuration not stated), the GI50 with DMS-114, with HOP-18, in the assay with RXF 631, in the assay on KM-20L2, in the assay on SNB-78 and with LXFL 529 was > 100 µM (inactive) each time. The GI50 in the assay with DMS-273 and in the assay on DLD-1 was > 100 µM (inactive) each time.

For `C/C(CC(=O)Nc1cc(C)ccc1C)=N\NC(=O)c1ccncc1`, the GI50 in the assay on M19-MEL, in the assay with RXF 631, with KM-20L2, in the assay on SNB-78, in the assay with LXFL 529 and in the assay on DLD-1 was > 100 µM (inactive) throughout.

On to `CCCCCC(O)(CCCCC)CCCCCCCCC1=C(O)C(=O)c2ccc(=O)[nH]c2C1=O`, for which the GI50 in the assay on DMS-114 is 4.37 µM (inactive); with M19-MEL it was 3.88 µM (inactive); in the assay with RXF 631, 10.3 µM (inactive); in the assay on KM-20L2, 13.1 µM (inactive); in the assay on SNB-78, 21.2 µM (inactive); with LXFL 529 it was 3.94 µM (inactive). Besides, the GI50 with DMS-273 is 3.59 µM (inactive); in the assay with DLD-1 it was 5.37 µM (inactive).

Consider `COc1cc2c(cc1OC(=O)CC(C)O)C1C(OC2=O)C(OC(C)=O)C=C2CCN(C)[C@H]21` (some centres not stated), for which the GI50 in the assay with M19-MEL was 78.9 µM (inactive); in the assay on HOP-18 it was 26.9 µM (inactive); in the assay on RXF 631 it was 31 µM (inactive); in the assay with KM-20L2, > 100 µM (inactive); in the assay with SNB-78, 20.7 µM (inactive); in the assay with LXFL 529, 82.4 µM (inactive). The GI50 in the assay with DMS-273 was 47.1 µM (inactive); with DLD-1, 69 µM (inactive).

`O=c1oc2c(O)c(O)cc3c(=O)oc4c(O)c(O)cc1c4c23` [ELLAGIC ACID]: the GI50 in the assay on DMS-114 was 33.4 µM (inactive); in the assay with M19-MEL it was > 10 µM (inactive); with HOP-18, > 10 µM (inactive); with RXF 631, > 10 µM (inactive); in the assay with KM-20L2, 94.4 µM (inactive); in the assay with SNB-78 it was > 10 µM (inactive). Further, the GI50 in the assay with LXFL 529 is 37 µM (inactive); in the assay with DMS-273, > 10 µM (inactive); with DLD-1, > 10 µM (inactive).

With `COc1ccc(-c2cc(O)c3ccc(F)cc3n2)cc1`, the GI50 in the assay with DMS-114, with M19-MEL, with HOP-18, in the assay with RXF 631, in the assay with KM-20L2 and with SNB-78 was > 100 µM (inactive) in each case. Further, the GI50 in the assay on LXFL 529 and in the assay with DLD-1 was > 100 µM (inactive) each time.

For `COc1cc(/C=C\c2ccc(Cl)cc2)cc(OC)c1OC`, the GI50 with DMS-114 was 0.394 µM (active); in the assay with M19-MEL it was 0.389 µM (active); in the assay with HOP-18 it was > 100 µM (inactive); in the assay on RXF 631, 0.118 µM (active); in the assay with KM-20L2, 0.105 µM (active); with SNB-78 it was 0.162 µM (active). Besides, the values for the GI50 in the assay on LXFL 529, in the assay on DMS-273 and in the assay with DLD-1 were 0.292 µM (active), 0.149 µM (active) and 0.319 µM (active), respectively.

For `C=C1C2CC(OC(C)=O)C3(C)C(c4ccoc4)OC(=O)[C@@H](O)[C@]13OC1C[C@H](OC(C)=O)C(C)(C)[C@H](C(O)C(=O)OC)[C@]12C` (some centres not stated), the GI50 in the assay on DMS-114, in the assay on M19-MEL, in the assay on HOP-18, in the assay with KM-20L2, in the assay with SNB-78 and in the assay with LXFL 529 was > 100 µM (inactive) in each case. The GI50 in the assay with DMS-273 and with DLD-1 was > 100 µM (inactive) each time.

With `CCCCCCCCCCCCCCCCCCCCCC(=O)Nc1ccn(C2OC(CO)C(O)C2O)c(=O)n1` (configuration not stated), the GI50 in the assay with DMS-114 was 1.04 µM (active); in the assay on M19-MEL it was 8.17 µM (inactive); with HOP-18, > 100 µM (inactive); in the assay with KM-20L2, > 100 µM (inactive); with SNB-78 it was > 100 µM (inactive); with LXFL 529, > 100 µM (inactive). Also, the GI50 with DMS-273 was 35.6 µM (inactive); in the assay on DLD-1, > 100 µM (inactive).
